Test results reported in patent US8030443B2, “Squamous cell carcinoma antigen-derived peptide binding to HLA-A24 molecule” (Kurume University, priority 2005, dated 2011).

Test system: peptide-specific IgG in sera of cancer patients and healthy donors
Experiment: Measurement of anti-peptide IgG in plasma by LUMINEX multiplexed flow cytometric assay
Type: binding, human
Outline: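 Plasma diluted 1/100 incubated with peptide-coupled colour-coded beads 2 h at RT, then biotinylated goat anti-human IgG (γ-chain) 1 h and streptavidin-PE 30 min; fluorescence read by multiplexed flow cytometry, >100 counted significant. Specificity checked by three rounds of absorption on corresponding versus irrelevant SCCA peptide.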

With “QFQKLLTEF (SCCA 84-92 peptide) [SCCA-derived peptide, position 84-92]” the “Total: healthy donors with significant peptide-reactive IgG / donors tested” value (10 healthy donors, significant when fluorescence intensity exceeded 100 at 1/100 dilution) was 1/10, the “Total: cancer patients with significant peptide-reactive IgG / patients tested” value (71 cancer patients, significant when fluorescence intensity exceeded 100 at 1/100 dilution) was 14/71 and the Fluorescence intesity (serum of Breast Ca. patient #36, 1:100 dilution) was 95. The Fluorescence intesity (serum of Breast Ca. patient #37, 1:100 dilution) was 0, the Fluorescence intesity (serum of Breast Ca. patient #38, 1:100 dilution) was 31 and the Fluorescence intesity (serum of Breast Ca. patient #39, 1:100 dilution) was 34. The Fluorescence intesity (serum of Breast Ca. patient #40, 1:100 dilution) was 5, the Fluorescence intesity (serum of Breast Ca. patient #41, 1:100 dilution) was 182 and the Fluorescence intesity (serum of Breast Ca. patient #42, 1:100 dilution) was 11. For the same sequence, the Fluorescence intesity (serum of Breast Ca. patient #43, 1:100 dilution) was 26, the Fluorescence intesity (serum of Breast Ca. patient #44, 1:100 dilution) was 20 and the Fluorescence intesity (serum of Breast Ca. patient #45, 1:100 dilution) was 39. The Fluorescence intesity (serum of Colon Ca. patient #66, 1:100 dilution) was 0, the Fluorescence intesity (serum of Colon Ca. patient #67, 1:100 dilution) was 47 and the Fluorescence intesity (serum of Colon Ca. patient #68, 1:100 dilution) was 0. It also gave a Fluorescence intesity (serum of Colon Ca. patient #69, 1:100 dilution) of 0, a Fluorescence intesity (serum of Colon Ca. patient #70, 1:100 dilution) of 0 and a Fluorescence intesity (serum of Colon Ca. patient #71, 1:100 dilution) of 8. The Fluorescence intesity (serum of Gastric Ca. patient #56, 1:100 dilution) was 18, the Fluorescence intesity (serum of Gastric Ca. patient #57, 1:100 dilution) was 7 and the Fluorescence intesity (serum of Gastric Ca. patient #58, 1:100 dilution) was 0. The Fluorescence intesity (serum of Gastric Ca. patient #59, 1:100 dilution) was 118, the Fluorescence intesity (serum of Gastric Ca. patient #60, 1:100 dilution) was 0 and the Fluorescence intesity (serum of Gastric Ca. patient #61, 1:100 dilution) was 102. It also gave a Fluorescence intesity (serum of Gastric Ca. patient #62, 1:100 dilution) of 0, a Fluorescence intesity (serum of Gastric Ca. patient #63, 1:100 dilution) of 0 and a Fluorescence intesity (serum of Gastric Ca. patient #64, 1:100 dilution) of 7. For the same sequence, the Fluorescence intesity (serum of Gastric Ca. patient #65, 1:100 dilution) was 0, the Fluorescence intesity (serum of Healthy Donor #1, 1:100 dilution) was 0 and the Fluorescence intesity (serum of Healthy Donor #2, 1:100 dilution) was 79. It also gave a Fluorescence intesity (serum of Healthy Donor #3, 1:100 dilution) of 0, a Fluorescence intesity (serum of Healthy Donor #4, 1:100 dilution) of 0 and a Fluorescence intesity (serum of Healthy Donor #5, 1:100 dilution) of 0. For the same sequence, the Fluorescence intesity (serum of Healthy Donor #6, 1:100 dilution) was 0, the Fluorescence intesity (serum of Healthy Donor #7, 1:100 dilution) was 0 and the Fluorescence intesity (serum of Healthy Donor #8, 1:100 dilution) was 332. It also gave a Fluorescence intesity (serum of Healthy Donor #9, 1:100 dilution) of 33, a Fluorescence intesity (serum of Healthy Donor #10, 1:100 dilution) of 0 and a Fluorescence intesity (serum of Pancreas Ca. patient #46, 1:100 dilution) of 0. For the same sequence, the Fluorescence intesity (serum of Pancreas Ca. patient #47, 1:100 dilution) was 3, the Fluorescence intesity (serum of Pancreas Ca. patient #48, 1:100 dilution) was 344 and the Fluorescence intesity (serum of Pancreas Ca. patient #49, 1:100 dilution) was 0. It also gave a Fluorescence intesity (serum of Pancreas Ca. patient #50, 1:100 dilution) of 0, a Fluorescence intesity (serum of Pancreas Ca. patient #51, 1:100 dilution) of 0 and a Fluorescence intesity (serum of Pancreas Ca. patient #52, 1:100 dilution) of 108. The Fluorescence intesity (serum of Pancreas Ca. patient #53, 1:100 dilution) was 0, the Fluorescence intesity (serum of Pancreas Ca. patient #54, 1:100 dilution) was 13 and the Fluorescence intesity (serum of Pancreas Ca. patient #55, 1:100 dilution) was 0. It also gave a Fluorescence intesity (serum of Uterine cervical Ca. patient #1, 1:100 dilution) of 20, a Fluorescence intesity (serum of Uterine cervical Ca. patient #2, 1:100 dilution) of 2 and a Fluorescence intesity (serum of Uterine cervical Ca. patient #3, 1:100 dilution) of 0. The Fluorescence intesity (serum of Uterine cervical Ca. patient #4, 1:100 dilution) was 29, the Fluorescence intesity (serum of Uterine cervical Ca. patient #5, 1:100 dilution) was 15 and the Fluorescence intesity (serum of Uterine cervical Ca. patient #6, 1:100 dilution) was 922. For the same sequence, the Fluorescence intesity (serum of Uterine cervical Ca. patient #7, 1:100 dilution) was 12, the Fluorescence intesity (serum of Uterine cervical Ca. patient #8, 1:100 dilution) was 28 and the Fluorescence intesity (serum of Uterine cervical Ca. patient #9, 1:100 dilution) was 67. It also gave a Fluorescence intesity (serum of Uterine cervical Ca. patient #10, 1:100 dilution) of 15, a Fluorescence intesity (serum of Uterine cervical Ca. patient #11, 1:100 dilution) of 23 and a Fluorescence intesity (serum of Uterine cervical Ca. patient #12, 1:100 dilution) of 35. For the same sequence, the Fluorescence intesity (serum of Uterine cervical Ca. patient #13, 1:100 dilution) was 23, the Fluorescence intesity (serum of Uterine cervical Ca. patient #14, 1:100 dilution) was 20 and the Fluorescence intesity (serum of Uterine cervical Ca. patient #15, 1:100 dilution) was 116. It also gave a Fluorescence intesity (serum of Uterine cervical Ca. patient #16, 1:100 dilution) of 182, a Fluorescence intesity (serum of Uterine cervical Ca. patient #17, 1:100 dilution) of 56 and a Fluorescence intesity (serum of Uterine cervical Ca. patient #18, 1:100 dilution) of 49. The Fluorescence intesity (serum of Uterine cervical Ca. patient #19, 1:100 dilution) was 62, the Fluorescence intesity (serum of Uterine cervical Ca. patient #20, 1:100 dilution) was 106 and the Fluorescence intesity (serum of Uterine cervical Ca. patient #21, 1:100 dilution) was 19. The Fluorescence intesity (serum of Uterine cervical Ca. patient #22, 1:100 dilution) was 20, the Fluorescence intesity (serum of Uterine cervical Ca. patient #23, 1:100 dilution) was 57 and the Fluorescence intesity (serum of Uterine cervical Ca. patient #24, 1:100 dilution) was 1819. For the same sequence, the Fluorescence intesity (serum of Uterine cervical Ca. patient #25, 1:100 dilution) was 17, the Fluorescence intesity (serum of Uterine cervical Ca. patient #26, 1:100 dilution) was 128 and the Fluorescence intesity (serum of Uterine cervical Ca. patient #27, 1:100 dilution) was 28. It also gave a Fluorescence intesity (serum of Uterine cervical Ca. patient #28, 1:100 dilution) of 139, a Fluorescence intesity (serum of Uterine cervical Ca. patient #29, 1:100 dilution) of 14 and a Fluorescence intesity (serum of Uterine cervical Ca. patient #30, 1:100 dilution) of 33. For the same sequence, the Fluorescence intesity (serum of Uterine cervical Ca. patient #31, 1:100 dilution) was 108, the Fluorescence intesity (serum of Uterine cervical Ca. patient #32, 1:100 dilution) was 18 and the Fluorescence intesity (serum of Uterine cervical Ca. patient #33, 1:100 dilution) was 141. The Fluorescence intesity (serum of Uterine cervical Ca. patient #34, 1:100 dilution) was 15 and the Fluorescence intesity (serum of Uterine cervical Ca. patient #35, 1:100 dilution) was 18.
